Measured values from patent publication US20100069393A1, “METHOD OF TREATMENT AND AGENTS USEFUL FOR SAME” (PRANA BIOTECHNOLOGY LIMITED, priority 2006, published 2010).

How the values were obtained:
[1] = Neurotoxicity assay: MTS viability of primary cortical neuronal cultures; type: cell-based, mouse; conditions: BL6Jx129sv, mouse, primary cortical neuronal cultures, Neuronal cells, read-out: Cytotoxicity (% viable at 1 and 10 uM); for viability at 4 days, 1 uM: test compound 1 uM; for viability at 4 days, 10 uM: test compound 10 uM
[2] = E Log D (chromatographic method, pH 7.4); type: physicochemical
Protocol: Effective Log D values were measured using a chromatographic method employing a SUPELCOSIL LC-ABZ column using an octanol saturated mobile phase at pH 7.4. See F. Lombardo et al, J. Med. Chem. 2000, 43, 2922-2928.

[3] = Mice plasma concentration; type: in vivo; conditions: for Mice plasma concentration: presence in plasma at one or two time points (between 30 min and 4 h); for Mice plasma concentration in Tg mice: one or two time points (between 30 min and 4 h)
[4] = Blood brain barrier penetration (brain:plasma ratio after IV dose); type: in vivo; conditions: nominal dose 5 mg/kg, male Swiss Outbred mice
Protocol: A bolus injection of each of the test compound (50 μL of a 3 mg/mL aqueous solution containing 40% propylene glycol and 10% ethanol) was administered by tail vein injection to male Swiss Outbred mice (5-7 weeks of age).
At 5 and 60 min post-dose (n=3 mice at each time point), blood was collected by cardiac puncture and the whole brain was removed by making an incision through the back of the skull. Mice were anaesthetised approximately 3-4 min prior to blood and brain harvest with an intraperitoneal injection of ketamine and xylazine (133 mg/kg and 10 mg/kg, respectively).
The whole brain was placed into preweighed polypropylene vials and stored at −20° C. until analysis. On the day of analysis, the whole brain was homogenised in 3 parts of water (on ice to reduce the potential for ex vivo brain degradation) and an aliquot of the brain homogenate and plasma was analysed for compound concentration by LCMS. Standards were prepared by spiking blank brain homogenate and both samples and standards were processed by adding acetonitrile to the tissue homogenate, centrifuging and injecting an aliquot of the supernatant onto the LCMS.
To ensure complete recovery of compound from the brain, brain homogenate was spiked with compound (in 50% acetonitrile:50% water) to a nominal concentration of 500 ng/mL. The concentration of compound in the supernatant was then determined by LCMS and compared to the supernatant concentration when compound was added following precipitation with acetonitrile.

[5] = Cytotoxicity: viability of M17 cells; conditions: human, M17 neuroblastoma cells, Cytotoxicity (% viable at 1 and 10 uM); for viability at 1 uM: test compound 1 uM; for viability at 10 uM: test compound 10 uM
[6] = In vivo toxicity, visual observations; conditions: 30 mg/kg, number of days
[7] = in vitro; conditions: human, Cytotoxicity (% viable at 1 and 10 uM)
[8] = Phase I safety and tolerability in healthy volunteers; type: in vivo, human
Protocol: Compound B was administered to healthy volunteers in a 2-part study comprising single dose administration (Stage A) and multidose administration (Stage B).
The objectives of the Phase I trials were to determine the safety, tolerability and pharmacokinetics of single and multiple oral doses of Compound B in healthy volunteers. The double-blind studies were conducted at a Phase I unit in The Netherlands. The protocol included safety measures designed to capture the potential human adverse effects. A total of 65 healthy subjects have been exposed to doses of Compound B (41 single dose, 24 multiple dose).
In Stage A, fifty five (55) healthy male subjects aged 18-50 years were randomised (3:1) to receive a single oral dose of either placebo or Compound B at one of 7 dose levels (25, 50, 100, 200, 300, 500 or 800 mg).
In Stage B, thirty two (32) healthy male and female subjects aged 45-75 years (eight subjects per dose level) were randomised (3:1) to receive a daily oral dose over 7 consecutive days of either placebo or Compound B at one of 4 dose levels (200, 400, 600 or 800 mg). Each dose level comprised of 4 males and 4 females; the randomisation schedule ensuring that 1 subject/sex received placebo and 3 subjects/sex received Compound B.

[9] = tested on: primary cortical neuronal cultured cells; test: Neurotoxicity assay: MTS viability of primary cortical neuronal cultures; type: cell-based, mouse
[10] = tested on: M17 human neuroblastoma cells; test: Cytotoxicity: viability of M17 cells

| SMILES | viability at 4 days, 1 uM [1] [%] | viability at 4 days, 10 uM [1] [%] | Mice plasma concentration [3] | B:P Ratio ([4]; 5 min post dose) | B:P Ratio ([4]; 60 min post dose) | viability at 1 uM [5] [%] | viability at 10 uM [5] [%] | Toxicity at 30 mg/kg [6] | further results |
| --- | --- | --- | --- | --- | --- | --- | --- | --- | --- |
| Oc1c(I)cc(Cl)c2cccnc12 | 90 | 77 | Up to 700 ng/mL | 0.20 | 0.17 | 107 | 72.7 | none | ElogD (E) [2]: 1.85 |
| Oc1c(N2CCOCC2)ncc2cccnc12 | 104 | 98 | – | – | – | 112 | 93.7 | 10 days, mild toxic signs | ElogD (E) [2]: 1.45; Mice plasma concentration in Tg mice [3]: Below 80 ng/mL in Tg mice |
| O=c1c2c(Cl)cc(Cl)c(O)c2ncn1-c1ccc(F)cc1 | 98 | 67 | – | – | – | 93.2 | 47.3 | 5 days, none | ElogD (E) [2]: 5.32; Mice plasma concentration in Tg mice [3]: Up to 120 ng/mL in Tg mice |
| O=c1c2c(Cl)cc(Cl)c(O)c2ncn1C1CC1 | 91 | 77 | Up to 5000 ng/mL | 0.26 | 0.24 | 105 | 72 | 10 days, none | – |
| O=c1c2c(Cl)cc(Cl)c(O)c2ncn1CC1CC1 | 116 | 105 | Up to 2698 ng/mL | 0.12 | 0.07 | 96.2 | 76.8 | 11 days, none | – |
| O=c1c2c(Cl)cc(Cl)c(O)c2ncn1Cc1ccccn1 | 99 | 98 | Up to 984 ng/mL | 0.16 | 0.10 | 102 | 98.9 | 10 days, none | – |
| Cc1nc(Cn2cnc3c(O)c(Cl)cc(Cl)c3c2=O)cs1 | 100 | 93 | Up to 2439 ng/mL | 0.10 at 5 min, 0.10 at 60 min | 0.10 at 5 min, 0.10 at 60 min | 97 | 95.7 | 10 days, none | – |
| Cc1noc(C)c1Cn1cnc2c(O)c(Cl)cc(Cl)c2c1=O | 99 | 72 | Up to 3644 ng/mL | 0.18 | 0.08 | 104 | 76 | 10 days, none | – |
| O=c1c2cccc(O)c2ncn1Cc1cn2ccccc2n1 | – | – | – | – | – | – | – | – | viability at 1 uM [7]: 95%; viability at 10 uM [7]: 98.4% |
| CN(C)Cc1ccc2c(Cl)cc(Cl)c(O)c2n1 [Compound B] | – | – | – | – | – | – | – | – | incidence of adverse events ([8]; Stage A, single oral dose 25-800 mg, healthy male volunteers aged 18 to 50 years): 43.9%; tolerability ([8]; Stage A, single oral dose, healthy male volunteers aged 18 to 50 years): well tolerated; tolerability ([8]; Stage B, daily oral dose over 7 days (200-800 mg), healthy subjects aged 45-75 years): generally well tolerated |
| CN(C)Cc1ccc2c(Cl)cc(Cl)c(O)c2n1.Cl [drawing 119] | 84 | 72 | Up to 500 ng/ml ng/mL | 12.85 | 9.45 | 94 | 54.3 | None | – |
| CCC(C)n1cnc2c(O)c(Cl)cc(Cl)c2c1=O (centres unmarked) [drawing 189] | – | – | Up to 2949 ng/mL | – | – | – | – | 10 days, none | Cytotoxicity (% viable at 1 and 10 uM) ([9]; test compound 1 uM): 94%; Cytotoxicity (% viable at 1 and 10 uM) ([9]; test compound 10 uM): 67%; Cytotoxicity (% viable at 1 and 10 uM) ([10]; test compound 1 uM): 99.2%; Cytotoxicity (% viable at 1 and 10 uM) ([10]; test compound 10 uM): 68.6% |
| O=c1c2c(Cl)cc(Cl)c(O)c2ncn1-c1ccccn1 [drawing 288] | – | – | Up to 144.2 ng/mL | – | – | – | – | 10 days, none | Cytotoxicity (% viable at 1 and 10 uM) ([10]; test compound 1 uM): 107.8%; Cytotoxicity (% viable at 1 and 10 uM) ([10]; test compound 10 uM): 89.2% |
